Experimental findings from ChEMBL document CHEMBL3046877, “Synthesis and bioevaluation of novel arylnaphthalene lignans as anticancer agents” (Med Chem Res, 2013) are described below.

Calls of active or inactive are those of the source. No cut-off for these calls is given here. Where only a bound is given, the exact number is not on record here.

One test has as its system HEK293. Kind of test: Cytotoxicity against Homo sapiens (human) HEK293 cells assessed as decrease in cell growth after 3 days by MTT assay. It is filed as cell-based. The settings on record: HEK293, 72 h.
The test system of test [1] is KB. The test is described as follows: Anticancer activity against Homo sapiens (human) KB cells assessed as decrease in cell growth after 3 days by MTT assay. Format: functional, cell-based. The settings on record: 72 h.
Another test relates to HCT-116. Kind of test: Anticancer activity against Homo sapiens (human) HCT116 cells assessed as decrease in cell growth after 3 days by MTT assay. The settings on record: HCT-116, 72 h. It is filed as functional, cell-based.
The subject of another test is A549. Kind of test: Anticancer activity against Homo sapiens (human) A549 cells assessed as decrease in cell growth after 3 days by MTT assay. It is filed as functional, cell-based. The settings on record: A549, 72 h.
Another test concerns SW480. Kind of test: Anticancer activity against Homo sapiens (human) SW480 cells assessed as decrease in cell growth after 3 days by MTT assay. Format: functional, cell-based. The settings on record: SW480, 72 h.
Test [2] has as its system KB. The test is described as follows: Induction of apoptosis in Homo sapiens (human) KB cells assessed as increase in Bax expression at 5 to 15 uM after 72 hr by western blot analysis. Format: functional, cell-based.
Test [3] deals with KB. The test is described as follows: Induction of apoptosis in Homo sapiens (human) KB cells assessed as plasma membrane blebbing at 5 to 10 uM after 72 hr by AO/EB double staining based fluorescence microscopic analysis. It is filed as functional, cell-based.
In test [4] the test system is KB. The test is described as follows: Induction of apoptosis in Homo sapiens (human) KB cells assessed as decrease in Bcl-2 expression at 5 to 15 uM after 72 hr by western blot analysis. It is filed as functional, cell-based.

With `COc1cc2c(O)c3c(c(-c4cc(OC)c(OC)c(OC)c4)c2cc1OC)C(=O)OC3`, the IC50 in the test with HEK293 was > 100 µM; in the test with KB [1] it was 23.2 µM; in the test on HCT-116, > 100 µM; in the test on A549, 97.2 µM; in the test with SW480, > 100 µM.

Regarding `COc1ccc(-c2c3c(c(O)c4cc(OC)c(OC)cc24)COC3=O)cc1`, the half-inhibitory concentration (IC50) with HEK293 was > 100 µM; with KB [1], 20.6 µM; with HCT-116, > 100 µM; with A549 it was > 100 µM; with SW480, > 100 µM.

Regarding `COc1cc2c(O)c3c(c(-c4ccc5c(c4)OCO5)c2cc1OC)C(=O)OC3` [DIPHYLLIN], the half-inhibitory concentration (IC50) in the test on HEK293 is > 100 µM; in the test with HCT-116, 48.5 µM.

Regarding `COc1cc2c(O)c3c(c(-c4ccc(C)cc4)c2cc1OC)C(=O)OC3`, the IC50 in the test with HEK293 was > 100 µM; in the test on KB [1] it was 15.1 µM; in the test with HCT-116, > 100 µM; in the test on A549 it was > 100 µM; with SW480, > 100 µM.

With `COc1ccc(-c2c3c(c(O)c4cc(OC)c(OC)cc24)COC3=O)cc1OC`, the IC50 in the test with HEK293, in the test with KB [1], with HCT-116, in the test with A549 and in the test with SW480 was > 100 µM throughout.

As to `COc1cc2c(O)c3c(c(-c4ccccc4OC)c2cc1OC)C(=O)OC3`, the IC50 in the test on HEK293 is > 100 µM; in the test with KB [1] it was > 100 µM; in the test with HCT-116, > 100 µM; in the test on A549 it was > 100 µM; in the test with SW480, 22.8 µM.

In the case of `COc1cc(OC)cc(-c2c3c(c(O)c4cc(OC)c(OC)cc24)COC3=O)c1`, the result in the test with KB [2] and in the test with KB [3] was Active. For the same compound, in the test on KB [4], the inhibition result is “Active”. Moreover, the IC50 in the test with HEK293 is > 100 µM; in the test on KB [1], 5.1 µM; in the test with HCT-116, 29.3 µM; in the test with A549, > 100 µM; in the test with SW480, 5.6 µM.

In the case of `COc1ccc(OC)c(-c2c3c(c(O)c4cc(OC)c(OC)cc24)COC3=O)c1`, the IC50 with HEK293, in the test on KB [1], in the test with HCT-116, in the test on A549 and in the test with SW480 was > 100 µM each time.

As to `COc1cc([C@@H]2c3cc4c(cc3[C@@H](O[C@@H]3O[C@@H]5CO[C@@H](C)O[C@H]5[C@H](O)[C@H]3O)[C@H]3COC(=O)[C@H]23)OCO4)cc(OC)c1O` [ETOPOSIDE], in the test on HEK293, the IC50 is > 100 µM.

As for `COc1cc2c(O)c3c(c(-c4ccccc4)c2cc1OC)C(=O)OC3`, the IC50 with HEK293, with KB [1], in the test on HCT-116, with A549 and in the test on SW480 was > 100 µM in each case.

On to `COc1cccc(-c2c3c(c(O)c4cc(OC)c(OC)cc24)COC3=O)c1`, for which the IC50 in the test with HEK293 was > 100 µM; in the test on KB [1], > 100 µM; in the test on HCT-116, 88.5 µM; in the test with A549 it was > 100 µM; in the test on SW480, > 100 µM.
